From the NIST ThermoML archive (doi:10.1021/je034087q)

Assay: xn = mol fraction of the nth substance listed

CC(C)=O [acetone] + O=C=O
Conditions | mass density [kg/m3]
326.65 K, 9200 kPa, Fluid (supercritical or subcritical phases), x2 = 0.933 | 535
326.65 K, 9240 kPa, Fluid (supercritical or subcritical phases), x2 = 0.933 | 540
326.65 K, 9270 kPa, Fluid (supercritical or subcritical phases), x2 = 0.933 | 544
326.65 K, 9310 kPa, Fluid (supercritical or subcritical phases), x2 = 0.933 | 549
326.65 K, 9340 kPa, Fluid (supercritical or subcritical phases), x2 = 0.933 | 553
326.65 K, 9370 kPa, Fluid (supercritical or subcritical phases), x2 = 0.933 | 559
326.65 K, 9410 kPa, Fluid (supercritical or subcritical phases), x2 = 0.933 | 563
326.65 K, 9460 kPa, Fluid (supercritical or subcritical phases), x2 = 0.933 | 569
326.65 K, 9500 kPa, Fluid (supercritical or subcritical phases), x2 = 0.933 | 574
326.65 K, 9550 kPa, Fluid (supercritical or subcritical phases), x2 = 0.933 | 579
326.65 K, 9600 kPa, Fluid (supercritical or subcritical phases), x2 = 0.933 | 584
326.65 K, 9660 kPa, Fluid (supercritical or subcritical phases), x2 = 0.933 | 590
326.65 K, 9710 kPa, Fluid (supercritical or subcritical phases), x2 = 0.933 | 594
326.65 K, 9790 kPa, Fluid (supercritical or subcritical phases), x2 = 0.933 | 601
326.65 K, 9850 kPa, Fluid (supercritical or subcritical phases), x2 = 0.933 | 606
326.65 K, 9930 kPa, Fluid (supercritical or subcritical phases), x2 = 0.933 | 612
326.65 K, 10010 kPa, Fluid (supercritical or subcritical phases), x2 = 0.933 | 617
326.65 K, 10110 kPa, Fluid (supercritical or subcritical phases), x2 = 0.933 | 625
326.65 K, 10210 kPa, Fluid (supercritical or subcritical phases), x2 = 0.933 | 630
326.65 K, 10340 kPa, Fluid (supercritical or subcritical phases), x2 = 0.933 | 637
326.65 K, 10470 kPa, Fluid (supercritical or subcritical phases), x2 = 0.933 | 643
326.65 K, 10590 kPa, Fluid (supercritical or subcritical phases), x2 = 0.933 | 650
326.65 K, 10750 kPa, Fluid (supercritical or subcritical phases), x2 = 0.933 | 656
326.65 K, 10920 kPa, Fluid (supercritical or subcritical phases), x2 = 0.933 | 663
326.65 K, 11100 kPa, Fluid (supercritical or subcritical phases), x2 = 0.933 | 670
326.65 K, 11320 kPa, Fluid (supercritical or subcritical phases), x2 = 0.933 | 677
326.65 K, 11540 kPa, Fluid (supercritical or subcritical phases), x2 = 0.933 | 684
326.65 K, 11800 kPa, Fluid (supercritical or subcritical phases), x2 = 0.933 | 691
326.65 K, 12060 kPa, Fluid (supercritical or subcritical phases), x2 = 0.933 | 699
326.65 K, 12380 kPa, Fluid (supercritical or subcritical phases), x2 = 0.933 | 708
326.65 K, 12730 kPa, Fluid (supercritical or subcritical phases), x2 = 0.933 | 715
326.65 K, 13140 kPa, Fluid (supercritical or subcritical phases), x2 = 0.933 | 723
326.65 K, 13580 kPa, Fluid (supercritical or subcritical phases), x2 = 0.933 | 731
326.65 K, 14060 kPa, Fluid (supercritical or subcritical phases), x2 = 0.933 | 741
326.65 K, 14600 kPa, Fluid (supercritical or subcritical phases), x2 = 0.933 | 749
328.15 K, 9370 kPa, Fluid (supercritical or subcritical phases), x2 = 0.902 | 632
328.15 K, 9490 kPa, Fluid (supercritical or subcritical phases), x2 = 0.902 | 640
328.15 K, 9620 kPa, Fluid (supercritical or subcritical phases), x2 = 0.902 | 645
328.15 K, 9720 kPa, Fluid (supercritical or subcritical phases), x2 = 0.902 | 650
328.15 K, 9780 kPa, Fluid (supercritical or subcritical phases), x2 = 0.902 | 654
328.15 K, 9910 kPa, Fluid (supercritical or subcritical phases), x2 = 0.902 | 657
328.15 K, 10020 kPa, Fluid (supercritical or subcritical phases), x2 = 0.902 | 662
328.15 K, 10150 kPa, Fluid (supercritical or subcritical phases), x2 = 0.902 | 669
328.15 K, 10330 kPa, Fluid (supercritical or subcritical phases), x2 = 0.902 | 673
328.15 K, 10480 kPa, Fluid (supercritical or subcritical phases), x2 = 0.902 | 679
328.15 K, 10610 kPa, Fluid (supercritical or subcritical phases), x2 = 0.902 | 684
328.15 K, 10820 kPa, Fluid (supercritical or subcritical phases), x2 = 0.902 | 688
328.15 K, 11020 kPa, Fluid (supercritical or subcritical phases), x2 = 0.902 | 695
328.15 K, 11200 kPa, Fluid (supercritical or subcritical phases), x2 = 0.902 | 700
328.15 K, 11440 kPa, Fluid (supercritical or subcritical phases), x2 = 0.902 | 705
328.15 K, 11720 kPa, Fluid (supercritical or subcritical phases), x2 = 0.902 | 711
328.15 K, 11920 kPa, Fluid (supercritical or subcritical phases), x2 = 0.902 | 716
328.15 K, 12230 kPa, Fluid (supercritical or subcritical phases), x2 = 0.902 | 721
328.15 K, 12460 kPa, Fluid (supercritical or subcritical phases), x2 = 0.902 | 727
328.15 K, 12780 kPa, Fluid (supercritical or subcritical phases), x2 = 0.902 | 733
328.15 K, 12970 kPa, Fluid (supercritical or subcritical phases), x2 = 0.902 | 737
328.15 K, 13310 kPa, Fluid (supercritical or subcritical phases), x2 = 0.902 | 739
328.15 K, 13640 kPa, Fluid (supercritical or subcritical phases), x2 = 0.902 | 748
328.15 K, 13900 kPa, Fluid (supercritical or subcritical phases), x2 = 0.902 | 748
328.15 K, 14180 kPa, Fluid (supercritical or subcritical phases), x2 = 0.902 | 754
328.15 K, 14600 kPa, Fluid (supercritical or subcritical phases), x2 = 0.902 | 758
328.15 K, 14820 kPa, Fluid (supercritical or subcritical phases), x2 = 0.902 | 761
328.15 K, Liquid, Other PVT measurement, x2 = 0.902 | 626
333.15 K, 9750 kPa, Fluid (supercritical or subcritical phases), x2 = 0.902 | 573
333.15 K, 9830 kPa, Fluid (supercritical or subcritical phases), x2 = 0.902 | 579
333.15 K, 9880 kPa, Fluid (supercritical or subcritical phases), x2 = 0.902 | 582
333.15 K, 9920 kPa, Fluid (supercritical or subcritical phases), x2 = 0.902 | 585
333.15 K, 9990 kPa, Fluid (supercritical or subcritical phases), x2 = 0.902 | 590
333.15 K, 10050 kPa, Fluid (supercritical or subcritical phases), x2 = 0.902 | 594
333.15 K, 10100 kPa, Fluid (supercritical or subcritical phases), x2 = 0.902 | 599
333.15 K, 10180 kPa, Fluid (supercritical or subcritical phases), x2 = 0.902 | 603
333.15 K, 10250 kPa, Fluid (supercritical or subcritical phases), x2 = 0.902 | 607
333.15 K, 10320 kPa, Fluid (supercritical or subcritical phases), x2 = 0.902 | 610
333.15 K, 10380 kPa, Fluid (supercritical or subcritical phases), x2 = 0.902 | 614
333.15 K, 10500 kPa, Fluid (supercritical or subcritical phases), x2 = 0.902 | 619
333.15 K, 10610 kPa, Fluid (supercritical or subcritical phases), x2 = 0.902 | 626
333.15 K, 10750 kPa, Fluid (supercritical or subcritical phases), x2 = 0.902 | 631
333.15 K, 10850 kPa, Fluid (supercritical or subcritical phases), x2 = 0.902 | 636
333.15 K, 10920 kPa, Fluid (supercritical or subcritical phases), x2 = 0.902 | 641
333.15 K, 11080 kPa, Fluid (supercritical or subcritical phases), x2 = 0.902 | 646
333.15 K, 11170 kPa, Fluid (supercritical or subcritical phases), x2 = 0.902 | 650
333.15 K, 11280 kPa, Fluid (supercritical or subcritical phases), x2 = 0.902 | 654
333.15 K, 11490 kPa, Fluid (supercritical or subcritical phases), x2 = 0.902 | 660
333.15 K, 11690 kPa, Fluid (supercritical or subcritical phases), x2 = 0.902 | 666
333.15 K, 11820 kPa, Fluid (supercritical or subcritical phases), x2 = 0.902 | 671
333.15 K, 12000 kPa, Fluid (supercritical or subcritical phases), x2 = 0.902 | 676
333.15 K, 12230 kPa, Fluid (supercritical or subcritical phases), x2 = 0.902 | 682
333.15 K, 12390 kPa, Fluid (supercritical or subcritical phases), x2 = 0.902 | 687
333.15 K, 12560 kPa, Fluid (supercritical or subcritical phases), x2 = 0.902 | 690
333.15 K, 12840 kPa, Fluid (supercritical or subcritical phases), x2 = 0.902 | 697
333.15 K, 13010 kPa, Fluid (supercritical or subcritical phases), x2 = 0.902 | 700
333.15 K, 13280 kPa, Fluid (supercritical or subcritical phases), x2 = 0.902 | 705
333.15 K, 13630 kPa, Fluid (supercritical or subcritical phases), x2 = 0.902 | 711
333.15 K, 13800 kPa, Fluid (supercritical or subcritical phases), x2 = 0.902 | 716
333.15 K, 13980 kPa, Fluid (supercritical or subcritical phases), x2 = 0.902 | 719
333.15 K, 14280 kPa, Fluid (supercritical or subcritical phases), x2 = 0.902 | 723
333.15 K, 14460 kPa, Fluid (supercritical or subcritical phases), x2 = 0.902 | 726
333.15 K, 14830 kPa, Fluid (supercritical or subcritical phases), x2 = 0.902 | 733
333.15 K, Liquid, Other PVT measurement, x2 = 0.902 | 570
335.15 K, 9800 kPa, Fluid (supercritical or subcritical phases), x2 = 0.909 | 532
335.15 K, 9820 kPa, Fluid (supercritical or subcritical phases), x2 = 0.909 | 535
335.15 K, 9860 kPa, Fluid (supercritical or subcritical phases), x2 = 0.909 | 539
335.15 K, 9900 kPa, Fluid (supercritical or subcritical phases), x2 = 0.909 | 543
335.15 K, 9940 kPa, Fluid (supercritical or subcritical phases), x2 = 0.909 | 548
335.15 K, 10000 kPa, Fluid (supercritical or subcritical phases), x2 = 0.909 | 551
335.15 K, 10050 kPa, Fluid (supercritical or subcritical phases), x2 = 0.909 | 558
335.15 K, 10100 kPa, Fluid (supercritical or subcritical phases), x2 = 0.909 | 562
335.15 K, 10160 kPa, Fluid (supercritical or subcritical phases), x2 = 0.909 | 567
335.15 K, 10220 kPa, Fluid (supercritical or subcritical phases), x2 = 0.909 | 572
335.15 K, 10280 kPa, Fluid (supercritical or subcritical phases), x2 = 0.909 | 578
